{"source": "patent US9212204B2", "about": "“Treatment of rett syndrome using glycyl-L-2-methylprolyl-L-glutamic acid” (priority 2011, dated 2015)", "key": {"[1]": {"test_system": "animals with hypoxic-ischemic injuries caused by middle cerebral artery occlusion", "details": "MCaO; cited from earlier work"}, "[2]": {"test_system": "hippocampal CA1 neurons of mecp2 null mutant mice", "test": "Golgi staining, dendrite morphology in mecp2 knockout mice", "format": "in vivo, mouse", "description": "We assess the effects of G-2-MePE treatment on dendrites. Transgenic mecp2 knockout mice (n=15 to 20) were administered G-2-MePE intraperitoneally at a dose of 20 mg/kg once daily. Following sacrifice dendritic spine density, spine length and aborization were examined after Golgi staining after nine weeks, as per the Table 1 below:\nDendritic length was assessed by distance from the soma of representative hippocampal CA1 neurons from 9 week old male mecp2 null mutant mice treated with either saline (3 neurons analysed from 3 separate mice, n=9) or G-2-MePE (20 mg/kg i.p. 1/day, from week 4; 3 neurons analysed from 3 separate mice, n=9)."}, "MeCP2-/y mice": {"test_system": "MeCP2-/y mice", "test": "Heart rate measurements", "format": "in vivo, mouse", "details": "8 weeks old, treated from P15", "description": "Real time cardiac pulse rate is measured using a tail clip sensor (Mouse OX Oximeter—Oakmont, Pa.). Mice are not anesthetized but physically restrained in a fitted open plastic tube. Prior to the recording session the tube is placed overnight in the cages housing the experimental animals to allow habituation. Body temperature is maintained at ˜82-84° F. throughout the recording time. We record 3 trials of 15 minutes for each mouse, mice are 8 weeks old and treated with vehicle or G-2-MePE from P15.\nTo examine heart rate abnormalities in MeCP2−/y mice and the effect of G-2-MePE treatment, we monitor real time cardiac pulse rate in non-anesthetized wild type and MeCP2−/y animals treated with vehicle or G-2-MePE."}, "MeCP2 deficient mice [3]": {"test_system": "MeCP2 deficient mice", "test": "Seizure activity, electroencephalographic recordings", "details": "mouse, in vivo", "from_the_text": "Because seizures are a prominent, hazardous and a difficult to treat aspect of Rett Syndrome, we determine the effects of G-2MePE on seizure activity in MeCP2 deficient animals. G-2-MePE can be effective in treating seizure activity in animals with neurodegenerative disease (U.S. Pat. No. 7,714,020). Therefore, we carry out experiments to determine whether G-2-MePE can also treat seizure activity in MeCP2 deficient mice. Electroencephalograpic recordings of wild-type mice and MeCP2 deficient mice treated with either saline or G-2-MePE are obtained using methods described in U.S. Pat. No. 7,714,020."}, "[4]": {"test_system": "adult MeCP2+/- female mice", "test": "Optical imaging of intrinsic signals, ocular dominance plasticity", "format": "in vivo, mouse", "details": "monocularly deprived for 4 days, treated concurrently; aged P60 or more", "description": "For the survival measurements, the nocturnal activity analysis and the immunoblot analysis, G-2-MePE (synthesised Albany Molecular Research Inc. (Albany, N.Y.) and supplied by Neuren Pharmaceuticals Limited) is administered daily via intra-peritoneal injections (20 mg/kg, vehicle=saline, 0.01% BSA). The treatment starts at PI 5 and is maintained throughout the course of the experiments. For intracellular physiology experiments, the mice are injected daily with G-2-MePE (20 mg/kg body weight, vehicle=saline, 0.01% BSA) for 2 weeks, from P15 to P28-P32 when they are used for acute slice preparation. For optical imaging experiments, mice are injected with G-2-MePE (20 mg/kg body weight, vehicle=saline, 0.01% BSA) daily from the day of the lid suture to the day of imaging.\nAdult (>P60) wild type (SVEV or BL6) and MeCP2 (+/−) mutant females (BL6) are used for this experiment. The wild type control group is composed of both wild type littermates of MeCP2+/− females or wild type age matched SVEV females. For monocular deprivation, animals are anesthetized with Avertin (0.016 ml/g) and the eyelids of one eye is sutured for 4 days. […] During the imaging session, the animal is constantly oxygenated, its temperature maintained with a heating blanket and the eyes periodically treated with silicone oil; physiological conditions are constantly monitored. […]"}, "MeCP2 deficient mice [5]": {"test_system": "MeCP2 deficient mice", "test": "Survival of MeCP2 deficient mice after oral administration", "format": "in vivo, mouse", "details": "20 or 80 mg/kg daily", "description": "Therefore, we administer G-2-MePE orally to MeCP2 deficient mice as described in US 2009/0074865. Briefly, an aqueous solution, a water-in-oil emulsion (micro-emulsion, coarse emulsion or liquid crystal), or a gel composition containing a pharmaceutically effective amount of G-2-MePE (20 or 80 mg/kg per animal) is administered daily. In control MeCP2 deficient animals, we administer saline only, and wild-type animals are used to obtain baseline data similar to the design of studies described in Example 8 above."}, "[6]": {"details": "20 mg/kg i.p. once daily, 9 weeks of age"}}, "note": "Non-standard residues stand in square brackets, D forms with d. Residues, ends and D or L forms follow the SMILES beside them. αMeP = C[C@@]1(C(=O)O)CCCN1", "data": [{"smiles": "C[C@@]1(C(=O)N[C@@H](CCC(=O)O)C(=O)O)CCCN1C(=O)CN", "note": "[Example G-2-MePE, Glycyl-L-2-methylprolyl-L-glutamic acid] (H-Gly-[αMeP]-Glu-OH)", "values": [{"measurement": "non-convulsive seizures (NCS)", "setting": "[1]", "result": "inhibit"}, {"measurement": "dendritic length as a function of distance from the soma", "setting": "[2]; 20 mg/kg i.p. 1/day from week 4, vs saline, FIG. 24", "result": "longer dendrites"}, {"measurement": "dendritic arborization", "setting": "[2]; [6]", "result": "improved"}, {"measurement": "dendritic spine length", "setting": "[2]; [6]", "result": "increased"}, {"measurement": "occurrence of irregular heart rate with a lower average rate", "setting": "MeCP2-/y mice", "result": "significantly reduced"}, {"measurement": "motor seizures", "setting": "MeCP2 deficient mice [3]", "result": "effective in decreasing"}, {"measurement": "non-convulsive seizures", "setting": "MeCP2 deficient mice [3]", "result": "effective in decreasing"}, {"measurement": "OD plasticity", "setting": "[4]", "result": "reduces"}, {"measurement": "survival", "setting": "MeCP2 deficient mice [5]", "result": "increased substantially"}]}]}
